Data: publication PMC8991960, “A Bivalent Activatable Fluorescent Probe for Screening and Intravital Imaging of Chemotherapy‐Induced Cancer Cell Death” (Angewandte Chemie (International Ed. in English), 2021)
Starred links: 1 amine or outer side, 2 acyl side, 3 side chain; linkers in the order of their positions; H or OH if unused. Non-standard residues stand in square brackets, D forms with d. Residues, ends and D or L forms follow the SMILES beside them. X1 = CC1=CC(C)=[N+]2C1=C(c1cccc(-c3[nH]c4ccccc4c3C[C@H](N[*:1])C(=O)[*:2])c1)c1ccc(-c3ccc(C)s3)n1[B-]2(F)F

How the values were obtained:
[1] = Stability analysis in mouse serum; format: in vitro ADME; conditions: mouse serum vs PBS, 24 h, 37 °C, 500 rpm; 25 µM (Figure S14) or 50 µM (method); HPLC after CH3CN protein precipitation, and fluorescence (exc 520 nm)
Description: Optical intravital imaging is increasingly used for the preclinical evaluation of anticancer drugs in vivo. Although imaging modalities like computed tomography, positron emission tomography and magnetic resonance imaging can help to visualise whole intact organs in a non‐invasive manner,[26] they lack the spatiotemporal resolution needed to study dynamic interactions between individual tumour and stromal cells. This feature is critical to understand the mechanism of action of anticancer drugs and how they can affect interactions between cancer cells and immune cells in the tumour microenvironment.[27] Intravital imaging heavily relies on the acquisition of fluorescence signals using multiphoton microscopy, which provides cellular resolution with deep tissue penetration (≈500 μm) and minimal photodamage.[28] […] First, we analysed the chemical stability of Apotracker Red for in vivo studies by incubating the probe in mouse serum. […] When primary tumours measured around 0.5–1 cm in diameter, we administered cisplatin intraperitoneally (10 mg kg^−1). […]
fluorescence emission of Apotracker Red before and after incubation in mouse serum and […]
Fluorescence spectra were recorded after excitation at 520 nm. […]
Lipid layer assays . […] The LoD was calculated using the equation LoD = (3 × σ)/k, where σ is the standard […]

MDA-MB-231 cells = test: Cell viability (TACS MTT cell proliferation assay); format: cell-based, human; conditions: MDA-MB-231, different concentrations, 3 h, n=5
Method: (§1) Figure S15. Cell viability experiments (TACS® MTT cell proliferation assay) after incubation of Apotracker Red in breast cancer cell lines (a: MCF7 cells, b: MDA-MB-231 cells) at different concentrations for 3 h. Data presented as means ± SD (n=5). P values obtained from one- way ANOVA using multiple comparisons (ns for p>0.05).
(§2) Figure S16. Quantification of E GFP+ macrophages in tumours from untreated and cisplatin-treated mice by time- lapse imaging on a spinning disk confocal microscope (λexc: 488 nm). Data presented as means ± SD of 8 random areas in 2- 3 mice per group (untreated or treated with 10 μg g-1 cisplatin for 72 h). […]

MCF7 cells = test: Cell viability (TACS MTT cell proliferation assay); format: cell-based, human; conditions: MCF7, different concentrations, 3 h, n=5
Method: as §1, §2

Which results are given for `CC1=CC(C)=[N+]2C1=C(c1cccc(-c3[nH]c4ccccc4c3C[C@@H]3NC(=O)[C@H](Cc4ccccc4)NC(=O)[C@H](Cc4c[nH]c5ccccc45)NC(=O)[C@H](CCCCN)NC(=O)[C@H](CCCCN)NC(=O)[C@H](CCCNC(=N)N)NC(=O)CNC3=O)c1)c1ccc(-c3ccc(C)s3)n1[B-]2(F)F` [Apotracker Red] (cyclo(F[X1]GRKKW))?
Proteolytic stability in mouse serum [1]: good proteolytic stability for up to 24 h; Cell toxicity (MTT) (MDA-MB-231 cells): did not cause cell toxicity; Cell toxicity (MTT) (MCF7 cells): did not cause cell toxicity
